In the supplement of paper PMC10307832:

Assays:
Experiment in all cases: relative viability (nuclei count vs DMSO), 5 days (fraction); higher = more cells survive
[1] = compound: CC(C)C[C@H](NC(=O)[C@H](CCc1ccccc1)NC(=O)CN1CCOCC1)C(=O)N[C@@H](Cc1ccccc1)C(=O)N[C@@H](CC(C)C)C(=O)[C@@]1(C)CO1 [Carfilzomib] + CC(=O)c1c(C)c2cnc(Nc3ccc(N4CCNCC4)cn3)nc2n(C2CCCC2)c1=O [Palbociclib] (partner 0.5 µM)
In short: (§1)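 Lung cancer cell lines, seeded in 1536-well plates, were treated the following day by pin tool with a single drug or with five library-drug doses (not always all listed) in √10 steps on top of a fixed anchor-drug dose. Cells were fixed and nuclei stained in one step after 5 days, and nuclei were counted. Relative viability is the nuclei count for treated wells divided by that for vehicle wells, reported as medians of duplicate plates.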

Olaparib + Pictilisib = compound: O=C(c1cc(Cc2n[nH]c(=O)c3ccccc23)ccc1F)N1CCN(C(=O)C2CC2)CC1 [Olaparib] + CS(=O)(=O)N1CCN(Cc2cc3nc(-c4cccc5[nH]ncc45)nc(N4CCOCC4)c3s2)CC1 [Pictilisib] (partner 1 µM)
In short: as §1

Olaparib + Linsitinib = compound: O=C(c1cc(Cc2n[nH]c(=O)c3ccccc23)ccc1F)N1CCN(C(=O)C2CC2)CC1 [Olaparib] + C[C@]1(O)C[C@@H](c2nc(-c3ccc4ccc(-c5ccccc5)nc4c3)c3c(N)nccn32)C1 [Linsitinib] (partner 1 µM)
In short: as §1

Olaparib + Alpelisib = compound: O=C(c1cc(Cc2n[nH]c(=O)c3ccccc23)ccc1F)N1CCN(C(=O)C2CC2)CC1 [Olaparib] + Cc1nc(NC(=O)N2CCC[C@H]2C(N)=O)sc1-c1ccnc(C(C)(C)C(F)(F)F)c1 [Alpelisib] (partner 2 µM)
In short: as §1

Cell Line | relative viability ([1]; first compound 0.001 µM) | relative viability ([1]; first compound 0.003162 µM) | relative viability ([1]; first compound 0.01 µM) | relative viability ([1]; first compound 0.03162 µM) | relative viability ([1]; first compound 0.1 µM) | relative viability (Olaparib + Pictilisib; first compound 0.08 µM) | relative viability (Olaparib + Pictilisib; first compound 0.253 µM) | relative viability (Olaparib + Pictilisib; first compound 2.53 µM) | relative viability (Olaparib + Pictilisib; first compound 8 µM) | relative viability (Olaparib + Linsitinib; first compound 0.08 µM) | relative viability (Olaparib + Linsitinib; first compound 0.253 µM) | relative viability (Olaparib + Linsitinib; first compound 2.53 µM) | relative viability (Olaparib + Linsitinib; first compound 8 µM) | relative viability (Olaparib + Alpelisib; first compound 0.08 µM) | relative viability (Olaparib + Alpelisib; first compound 0.253 µM) | relative viability (Olaparib + Alpelisib; first compound 2.53 µM) | relative viability (Olaparib + Alpelisib; first compound 8 µM)
HCC-827 | 0.499 | 0.459 | 0.72 | 0.459 | 0.159 | 0.905 | 0.781 | 1.07 | 0.95 | 0.899 | 0.886 | 0.922 | 0.774 | 1.02 | 0.934 | 0.828 | 0.876
HOP-62 | 0.44 | 0.496 | 0.41 | 0.19 | 0.0616 | 0.846 | 0.601 | 0.698 | 0.464 | 1.11 | 1.16 | 0.968 | 0.47 | 1.25 | 0.774 | 0.754 | 0.782
IA-LM |  |  |  |  |  | 0.392 | 0.372 | 0.321 | 0.317 | 0.891 | 0.391 | 0.672 | 0.443 | 0.929 | 0.738 | 0.76 | 0.509
LC-2-ad | 0.549 | 0.495 | 0.488 | 0.481 | 0.32 | 0.529 | 0.523 | 0.491 | 0.336 | 0.81 | 0.754 | 0.787 | 0.633 | 0.893 | 0.746 | 0.863 | 0.695
LCLC-97TM1 | 0.217 | 0.214 | 0.24 | 0.0666 | 0.0679 | 0.263 | 0.233 | 0.174 | 0.152 | 0.166 | 0.178 | 0.162 | 0.18 | 0.256 | 0.219 | 0.271 | 0.19
LCLC-103H | 0.415 | 0.47 | 0.465 | 0.494 | 0.416 | 0.682 | 0.557 | 0.53 | 0.52 | 1.13 | 1.07 | 1.04 | 0.873 | 1 | 0.928 | 1.09 | 0.923
LK-2 | 0.661 | 0.659 | 0.846 | 0.116 | 0.106 | 0.752 | 0.587 | 0.599 | 0.5 | 0.588 | 0.691 | 0.549 | 0.485 | 1.07 | 1.03 | 1.25 | 0.945
LOU-NH91 | 0.492 | 0.543 | 0.514 | 0.363 | 0.314 | 0.559 | 0.524 | 0.515 | 0.503 | 1.19 | 0.94 | 0.973 | 0.885 | 0.783 | 0.758 | 0.745 | 0.647
LU99A | 0.408 | 0.402 | 0.439 | 0.351 | 0.188 | 0.303 | 0.293 | 0.3 | 0.296 | 0.587 | 0.515 | 0.414 | 0.333 | 0.608 | 0.487 | 0.471 | 0.422
LXF-289 | 0.586 | 0.582 | 0.569 | 0.0924 | 0.12 | 0.825 | 0.713 | 0.729 | 0.74 | 1.05 | 0.899 | 1.02 | 0.968 | 1.16 | 1.02 | 1.07 | 1.03
NCI-H23 | 0.508 | 0.484 | 0.429 | 0.212 | 0.116 | 0.684 | 0.365 | 0.397 | 0.292 | 0.572 | 0.572 | 0.45 | 0.299 | 0.658 | 0.546 | 0.539 | 0.384
NCI-H322M | 0.487 | 0.475 | 0.543 | 0.522 | 0.37 | 0.507 | 0.522 | 0.521 | 0.485 | 0.819 | 0.879 | 0.979 | 0.84 | 0.893 | 0.789 | 0.911 | 0.709
NCI-H358 | 0.139 | 0.117 | 0.114 | 0.0724 | 0.0923 | 0.301 | 0.311 | 0.347 | 0.312 | 0.842 | 0.608 | 0.668 | 0.592 | 0.862 | 0.808 | 0.868 | 0.773
NCI-H522 | 0.873 | 0.977 | 0.848 | 1.08 | 0.274 |  |  |  |  |  |  |  |  |  |  |  | 
NCI-H596 |  |  |  |  |  | 0.417 | 0.381 | 0.45 | 0.394 | 1.04 | 0.856 | 0.923 | 0.744 | 0.532 | 0.452 | 0.551 | 0.41
NCI-H1299 |  |  |  |  |  | 0.815 | 0.805 | 0.8 | 0.582 | 1 | 0.945 | 0.966 | 0.943 | 1.03 | 1 | 1.07 | 1.03
NCI-H1563 |  |  |  |  |  | 0.614 | 0.645 | 0.695 | 0.635 | 1.22 | 1.25 | 1.2 | 1.2 | 1.04 | 0.952 | 0.929 | 0.973
NCI-H1648 | 0.236 | 0.23 | 0.227 | 0.288 | 0.255 |  |  |  |  |  |  |  |  |  |  |  | 
NCI-H1650 | 0.306 | 0.371 | 0.209 | 0.11 | 0.188 | 0.866 | 0.523 | 0.572 | 0.647 |  |  |  |  |  |  |  | 
NCI-H1703 |  |  |  |  |  | 0.299 | 0.346 | 0.275 | 0.27 | 0.9 | 0.697 | 0.881 | 0.408 | 0.45 | 0.464 | 0.391 | 0.412
NCI-H2170 | 0.38 | 0.437 | 0.456 | 0.339 | 0.127 | 0.346 | 0.277 | 0.305 | 0.332 |  |  |  |  | 0.846 | 0.838 | 0.849 | 0.718
NCI-H2342 | 0.488 | 0.57 | 0.58 | 0.576 | 0.44 |  |  |  |  |  |  |  |  |  |  |  | 
SW 900 |  | 0.51 | 0.288 | 0.19 | 0.186 |  |  |  |  |  |  |  |  |  |  |  | 
